Measurements from ChEMBL document CHEMBL4219169, “Sulfoximines as potent RORγ inverse agonists” (Bioorg Med Chem Lett, 2018).

Tests used:
[1] = Lipophilicity, log D of the compound at pH 6.5 by HPLC analysis; type: physicochemical; conditions: buffer
[2] = tested on: Mus musculus; assay: In vivo inverse agonist activity at RORgamma in wild type BALB/c ByJ Rj mouse model of imiquimod-induced skin inflammation model assessed as attenuation of imiquimod-induced epidermal hyperplasia at 0.01% administered topically daily for 7 days dosed 2 hrs before imiquimod administration measured on day 8 by hematoxylin and eosin staining-based histological analysis; type: functional
[3] = Fraction unbound in human plasma at 5 uM incubated for 4 hrs at 37 degC by LC-MS/MS method; type: ADME, cell-free
[4] = Intrinsic clearance in human hepatocytes assessed per million cells at 1 uM incubated for 5 to 90 mins by LC-MS/MS method; type: ADME, cell-based, Hepatocyte; conditions: read-out: CLH
[5] = Phototoxicity against human neonatal keratinocytes assessed as cell viability preincubated for 30 mins before 5 J/cm2 UV light irradiation for 15 mins followed by treatment medium replacement with fresh culture medium after 24 hrs by neutral red dye-based assay; conditions: 0.25 h
[6] = tested on: Salmonella typhimurium; assay: Genotoxicity in Salmonella typhimurium TA98 in presence of aroclor-1254-induced rat S9 fraction by Ames test; type: toxicity, organism-based; conditions: salmonella enterica subsp. enterica serovar typhimurium
[7] = tested on: Salmonella typhimurium; assay: Genotoxicity in Salmonella typhimurium TA98 in absence of aroclor-1254-induced rat S9 fraction by Ames test; type: toxicity, organism-based; conditions: salmonella enterica subsp. enterica serovar typhimurium
[8] = tested on: Salmonella typhimurium; assay: Genotoxicity in Salmonella typhimurium TA100 in presence of aroclor-1254-induced rat S9 fraction by Ames test; type: toxicity, organism-based; conditions: salmonella enterica subsp. enterica serovar typhimurium
[9] = tested on: Salmonella typhimurium; assay: Genotoxicity in Salmonella typhimurium TA100 in absence of aroclor-1254-induced rat S9 fraction by Ames test; type: toxicity, organism-based; conditions: salmonella enterica subsp. enterica serovar typhimurium
[10] = tested on: TK6; assay: Genotoxicity in human TK6 cells incubated for 27 hrs in absence of aroclor-1254-induced rat S9 fraction by Giemsa staining dependent optical microscopy based micronucleus test; type: toxicity, cell-based; conditions: tk6, 27 h
[11] = tested on: TK6; assay: Genotoxicity in human TK6 cells incubated for 3 hrs in presence of aroclor-1254-induced rat S9 fraction followed by 27 hrs recovery period by Giemsa staining dependent optical microscopy based micronucleus test; type: toxicity, cell-based; conditions: s9, 3 h
[12] = tested on: TK6; assay: Genotoxicity in human-derived p53-competent TK6 cells expressing GADD45a-dependent green fluorescent protein assessed as decrease in cell viability after 48 hrs in presence of Sprague-Dawley rat S9 fraction by FACS analysis; type: toxicity, cell-based; conditions: s9, 48 h
[13] = tested on: TK6; assay: Genotoxicity in human-derived p53-competent TK6 cells expressing GADD45a-dependent green fluorescent protein assessed as decrease in cell viability after 48 hrs in absence of Sprague-Dawley rat S9 fraction by FACS analysis; type: toxicity, cell-based; conditions: tk6, 48 h
[14] = molecular target: T1, Nuclear receptor ROR-alpha (Homo sapiens, UniProt P35398); assay: Inverse agonist activity at RORalpha (unknown origin) expressed in human HeLa-derived HG5LN cells transfected with the GAL4 DNA-binding domain fused to the RORalpha ligand-binding domain assessed as inhibition of transcriptional activity after 18 hrs by luminescence-based luciferase reporter gene assay; type: cell-based
T1 sequence (P35398 whole entry): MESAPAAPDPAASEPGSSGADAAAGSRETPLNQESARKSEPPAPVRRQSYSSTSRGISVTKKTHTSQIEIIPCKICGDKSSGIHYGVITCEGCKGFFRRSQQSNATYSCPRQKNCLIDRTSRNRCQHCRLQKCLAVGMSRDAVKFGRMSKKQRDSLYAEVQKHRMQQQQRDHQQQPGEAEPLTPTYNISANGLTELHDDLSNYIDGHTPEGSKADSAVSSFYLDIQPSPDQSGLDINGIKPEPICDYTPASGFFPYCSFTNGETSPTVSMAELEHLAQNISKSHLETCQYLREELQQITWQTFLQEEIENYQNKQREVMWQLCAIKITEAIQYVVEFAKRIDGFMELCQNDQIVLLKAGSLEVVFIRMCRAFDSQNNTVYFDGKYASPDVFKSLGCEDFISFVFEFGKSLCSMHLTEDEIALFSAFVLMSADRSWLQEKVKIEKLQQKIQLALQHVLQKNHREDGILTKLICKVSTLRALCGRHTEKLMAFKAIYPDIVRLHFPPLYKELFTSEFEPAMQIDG

[15] = tested on: TK6; assay: Genotoxicity in human TK6 cells incubated for 3 hrs in absence of aroclor-1254-induced rat S9 fraction followed by 27 hrs recovery period by Giemsa staining dependent optical microscopy based micronucleus test; type: toxicity, cell-based; conditions: tk6, 3 h

Row | SMILES | logD [1] | further results
1 | CCc1ccc(N(CC(C)C)S(=O)(=O)c2ccc(OCC3CCOCC3)cc2)cc1 | 7.2 | 
2 | CCc1ccc(N(CC(C)C)S(=O)(=O)c2ccc(OCC3CCOCC3)c(CC#N)c2)cc1 | 6.5 | 
3 | CCc1ccc(N(CC(C)C)S(=O)(=O)c2ccc(OCC3CCOCC3)c(CO)c2)cc1 [GSK2981278] | 5.9 | 
4 | CCc1ccc(N(CC(C)C)S(=O)(=O)c2ccc(OCC3CCOCC3)c(S(=N)(=O)CC)c2)cc1 (stereo not drawn) | 5 | 
5 | CCc1ccc(N(CC(C)C)S(=O)(=O)c2ccc(N3CCN(C(C)=O)CC3)c(S(C)(=N)=O)c2)cc1 (stereo not drawn) | 3.8 | 
6 | CCc1ccc(N(CC(C)C)S(=O)(=O)c2ccc(OCC3CCOCC3)c([S+](C)[O-])c2)cc1 (stereo not drawn) | 5.4 | 
7 | CCCCC(=O)O[C@]1(C(=O)CO)[C@@H](C)C[C@H]2[C@@H]3CCC4=CC(=O)C=C[C@]4(C)[C@@]3(F)[C@@H](O)C[C@@]21C [BETAMETHASONE VALERATE] |  | Activity [2]: 72%
8 | CCc1ccc(N(CC(C)C)S(=O)(=O)c2ccc(NCC3(CC)CCOCC3)c(S(C)(=N)=O)c2)cc1 (stereo not drawn) | 6.1 | 
9 | CCc1ccc(N(CC(C)C)S(=O)(=O)c2ccc(OC3CCN(C(C)=O)CC3)c(S(C)(=N)=O)c2)cc1 (stereo not drawn) | 3.8 | 
10 | CCc1ccc(N(CC(C)C)S(=O)(=O)c2ccc(OCC3CCOCC3)c(S(N)(=O)=O)c2)cc1 | 5.3 | 
11 | CCc1ccc(N(CC(C)C)S(=O)(=O)c2ccc(OCC3CCOCC3)c(CC(N)=O)c2)cc1 | 4.8 | 
12 | CCc1ccc(N(CC(C)C)S(=O)(=O)c2ccc(CCN3CCOCC3)c(S(C)(=N)=O)c2)cc1 (stereo not drawn) | 4 | 
13 | CCc1ccc(N(CC(C)C)S(=O)(=O)c2ccc(OCC3CCOCC3)c(CC(=O)O)c2)cc1 | 3.1 | 
14 | CCc1ccc(N(CC(C)C)S(=O)(=O)c2ccc(OCC3CCOCC3)c(S(C)(=O)=NC)c2)cc1 (stereo not drawn) | 5.2 | 
15 | CCc1ccc(N(CC(C)C)S(=O)(=O)c2ccc(OC3CCN(S(C)(=O)=O)CC3)c(S(C)(=N)=O)c2)cc1 (stereo not drawn) | 4.6 | 
16 | CCc1ccc(N(CC(C)C)S(=O)(=O)c2ccc(OCC3CCOCC3)c([S@](C)(=N)=O)c2)cc1 |  | fraction unbound at 4 h, 5 µM [3]: 0.049; hepatocyte CLint at 1 µM [4]: 160 µL/min/1e6 cells; Activity [5]: Non-Toxic; Activity [6]: Non-Toxic; Activity [7]: Non-Toxic; Activity [8]: Non-Toxic; Activity [9]: Non-Toxic; Activity [10]: Non-Toxic; Activity [11]: Non-Toxic; Activity [12]: Non-Toxic; Activity [13]: Non-Toxic; IC50 [14]: > 10 µM; Activity [15]: Non-Toxic

The next lines start with results.

Row | logD [1] | SMILES | further results
17 | 5.6 | CCc1ccc(N(CC(C)C)S(=O)(=O)c2ccc(N[C@@H](C)C3CCOCC3)c(S(C)(=N)=O)c2)cc1 (stereo partly drawn) | 
18 | 4.6 | CCc1ccc(N(CC(C)C)S(=O)(=O)c2ccc(OCC3CCOCC3)c(S(C)(=N)=O)c2)cc1 (stereo not drawn) | 
19 | 5.8 | CCc1ccc(N(CC(C)C)S(=O)(=O)c2ccc(OCC3CCOCC3)c(S(C)(=O)=O)c2)cc1 | 
20 | 4.4 | CCc1ccc(N(CC(C)C)S(=O)(=O)c2ccc(OC3CCOCC3)c(S(C)(=N)=O)c2)cc1 (stereo not drawn) | 
21 | 5.3 | CCc1ccc(N(CC(C)C)S(=O)(=O)c2ccc(NCC3CCOCC3)c(S(C)(=N)=O)c2)cc1 (stereo not drawn) | 
22 | 5.6 | CCc1ccc(N(CC(C)C)S(=O)(=O)c2ccc(N[C@H](C)C3CCOCC3)c(S(C)(=N)=O)c2)cc1 (stereo partly drawn) | 
23 | 5.2 | CCc1ccc(N(CC(C)C)S(=O)(=O)c2ccc(NCC3(F)CCOCC3)c(S(C)(=N)=O)c2)cc1 (stereo not drawn) | 
24 | 4.1 | CCc1ccc(N(CC(C)C)S(=O)(=O)c2ccc(NCC3(O)CCOCC3)c(S(C)(=N)=O)c2)cc1 (stereo not drawn) | 
25 | 5.2 | CCc1ccc(N(CC(C)C)S(=O)(=O)c2ccc(N(C)CC3CCOCC3)c(S(C)(=N)=O)c2)cc1 (stereo not drawn) | 
26 | 5.7 | CCc1ccc(N(CC(C)C)S(=O)(=O)c2ccc(NCC3(C)CCOCC3)c(S(C)(=N)=O)c2)cc1 (stereo not drawn) | 
